Results on four molecules are retold here after patent US6632833B1, “2-(2-methylphenyl)-3,4-dihydro-2H-pyrrole derivatives” (Bayer Aktiengesellschaft, priority 1998, dated 2003).

Like-named read-outs stand apart in the source and are kept apart here.

One series can be described thus: HPLC log P determination. The format is physicochemical. Particulars: alkane/water partition, estimated by HPLC retention. The method, then: * log P=[…] logarithm to base 10 of the alkane/water partition coefficient, determined by HPLC analysis using water/acetonitrile as mobile phase on 125×4.0 mm Kromasil […] (5 μm); flow rate: 1.5 ml/min.
Series [1] deals with larvae of the mustard beetle (Phaedon cochleariae). Kind of series: Phaedon larvae test. The note with it: dipped cabbage leaves. The series is classed as in vivo. The method, then: Phaedon larvae test [table] To produce a suitable preparation of active compound, 1 part by weight of active compound is mixed with the stated amounts of solvent and emulsifier, and the concentrate is diluted with emusifier-containing water to the desired concentration. Cabbage leaves (Brassica oleracea) are treated by being dipped into the preparation of active compound of the desired concentration and are populated with larvae of the mustard beetle (Phaedon cochleariae) while the leaves are still moist.

Series [2] has as its system caterpillars of the army-worm (Spodoptera frugiperda). In words: Spodoptera frugiperda test. The note with it: dipped cabbage leaves. The series is classed as in vivo. The method, then:
Spodoptera frugiperda test
(§1) To produce a suitable preparation of active compound, 1 part by weight of active compound is mixed with the stated amounts of solvent and emulsifier, and the concentrate is diluted with emusifier-containing water to the desired concentration.
Cabbage leaves (Brassica oleracea) are treated by being dipped into the preparation of active compound of the desired concentration and are populated with caterpillars of the army-worm (Spodoptera frugiperda) while the leaves are still moist.
(§2) After the desired period of time, the kill in % is determined. 100% means that all caterpillars have been killed; 0% means that none of the caterpillars have been killed.

For series [3], the system named is all stages of the greenhouse red spider mite (Tetranychus urticae). In words: Tetranychus test (OP-resistant/dip treatment). The note with it: after 7 days, dipped bean plants. The series is classed as in vivo. As to the method:
Tetranychus test (OP-resistant/dip treatment)
To produce a suitable preparation of active compound, 1 part by weight of active compound is mixed with the stated amounts of solvent and emulsifier, and the concentrate is diluted with emulsifier-containing water to the desired concentration.
Bean plants (Phaseolus vulgaris) which are heavily infested by all stages of the greenhouse red spider mite (Tetranychus urticae) are dipped into a preparation of the active compound of the desired concentration.
After the desired period of time, the action in % is determined. 100% means that all spider mites have been killed; 0% means that none of the spider mites have been killed.

The test system of series [4] is caterpillars of the cotton bollworm (Heliothis armigera). In words: Heliothis armigera test. The series is classed as in vivo. The note with it: concentration of active compound 0.004%; after 6 days; dipped soybean shoots. As to the method:
as §1
Soybean shoots (Glycine max) are treated by being dipped into the preparation of active compound of the desired concentration and are populated with caterpillars of the cotton bollworm (Heliothis armigera) while the leaves are still moist.
as §2

Series [5] has as its system caterpillars of the diamond-back moth (Plutella xylostella). Kind of series: Plutella test. The format is in vivo. The note with it: concentration of active compound 0.004%; after 6 days; dipped cabbage leaves. The method, then: as §1
Cabbage leaves (Brassica oleracea) are treated by being dipped into the preparation of active compound of the desired concentration and are populated with caterpillars of the diamond-back moth (Plutella xylostella) while the leaves are still moist.
as §2

Setting [6] is: concentration of active compound 0.01%, after 7 days.
Setting [7] is: pH 2.3, read-out: HPLC log P (pH 2.3).
Setting [8] is: concentration of active compound 0.004%, after 6 days.

Turning to `O=C1CCC(c2ccc(-c3ccc(OC(F)(F)C(F)F)cc3)cc2)N1` (stereo not drawn) [Example XI-43], the chromatographic logP in the series “HPLC log P determination” (pH 2-3, read-out: HPLC log P (pH 2-3)) was 2.79.
As for `Cc1ccccc1C1=NC(c2ccc(-c3ccc(OC(F)(F)C(F)F)cc3)cc2)CC1` (stereo not drawn) [Example I-43], the kill in % in series [1] (setting [6]) and in series [2] (setting [6]) was 100% in each case. Also, the “kill (action in %)” value in series [3] (concentration of active compound 0.01%) is on record as 100%. In addition, the chromatographic logP in the series “HPLC log P determination” (setting [7]) was 3.02.
Turning to `Cc1ccccc1C1=NC(c2ccc(-c3ccc(OC(F)(F)F)cc3)cc2)CC1` (stereo not drawn) [Example I-9], the kill in % in series [4], in series [1] (setting [8]), in series [5] and in series [2] (setting [8]) was 100% in each case. The “kill (action in %)” value in series [3] (concentration of active compound 0.004%) amounted to 98%. Also, the chromatographic logP in the series “HPLC log P determination” (neutral, HPLC, water/acetonitrile mobile phase, read-out: HPLC log P (neutral)) was 6.05.
Consider `Cc1ccccc1C(=O)CCC(NC(=O)OC(C)(C)C)c1ccc(-c2ccc(OC(F)(F)C(F)F)cc2)cc1` (stereo not drawn) [Example VIII-43], for which the chromatographic logP in the series “HPLC log P determination” (setting [7]) was 5.05.
